The values below come from US5415869A, “Taxol formulation” (The Research Foundation of State University of New York, priority 1993, dated 1995).

The test system of series [1] is healthy BALB/c female mice. Put plainly: Maximum Tolerated Dose / toxicity in healthy mice. The series is classed as in vivo. The following applies: i.v., single dose. The procedure: (§1) The Maximum Tolerated Dose ("MTD") for taxol-liposome formulations administered via the intravenous route was determined in healthy BALB/c female mice. Survey experiments to define the MTD were performed with two animals per group. Doses were escalated in 2-fold increments, starting at 5 mg/kg. Drug effects were determined by close observation of weight changes and survival. The highest non-lethal dose of taxol causing >10% weight loss within one week of cessation of dosing was defined as the MTD. Animals showing weight loss exceeding 20% were sacrificed, as changes of this magnitude often indicate lethal toxicity (E. Mayhew, unpublished observations). After completing the survey experiments, the approximate MTD was refined further using 3 groups of 8 mice.

Series [2] can be described thus: Maximum Tolerated Dose / toxicity in healthy mice. The series is classed as in vivo. The following applies: mouse, in vivo, iv. The method, then: as §1
Series [3] has as its system A121a, a human ovarian tumor line. Put plainly: Cytostatic activity in vitro, A121a. The following applies: 72 hr. The series is classed as cell-based. An excerpt: (§2) FIG. 7 is a plot of cell lines versus IC50 which compares the growth-inhibitory properties of taxol/liposomes to those of free taxol. Cells were placed at a density of 2×10^4 /ml in multiwell plates and allowed to adhere overnight. Triplicate wells were exposed to various concentration of taxol, either added as liposomes (solid bar), as a 100× concentrated stock in DMSO (stippled bar), or absorbed to serum proteins (hatched bar) in the absence of organic solvent. […] Experiments were repeated at least twice. Cell lines are as follows: Colon-26: murine colon carcinoma; B16: murine melanoma; B16F10: highly-metastatic variant of B16 murine melanoma; L1210: murine leukemia; 9L: rat gliosarcoma; A12la, Hcy-lb, and A90: human ovarian tumor cell lines.

The test system of series [4] is advanced and refractory ovarian cancer. The following applies: phase II, heavily-pretreated patients; cited from earlier work.
In the next series the test system is 9L rate gliosarcoma. Briefly: Cytostatic activity in vitro, 9L. The series is classed as cell-based, rat. Particulars: 0.1% DMSO vs drug dissolved directly in serum-containing growth medium.
Excerpt: as §2

The test system of series [5] is Colon-26 (C-26), a murine colon tumor model. Briefly: Antitumor activity in nine doses, s.c. Colon-26.
Protocol: FIGS. 3A-C show plots of mean tumor size versus days after tumor implantation which indicates the antitumor effect of nine doses of free- or liposomal taxol on Colon-26 tumors. Subcutaneous Colon-26 tumors were initiated. When the tumor was measurable (day 8), treatment was initiated. Animals were dosed 3 times weekly, and treatment was given for 3 weeks, as indicated by the filled circle along the abscissa. Untreated controls received injections of saline or Diluent 12 (diluted 1:3) without taxol (panel A). Treatment with liposome-based taxol formulations consisted of 10, 40, or 60 mg/kg doses with taxol, PG, and PC SUV (B). Alternatively, free taxol in Diluent 12 (diluted 1:3 with saline), was administered at doses of 10, 20, or 30 mg/kg (C). […] Each treatment group consisted of ten animals. For humane reasons, animals were sacrificed when tumor volume exceeded 2000 mm^3.
In all experiments, the tumor volume of each animal was measured frequently, and the data was subjected to statistical analysis using an BMDP 1L program. The median time required for the tumor to reach 1500 mm^3 was determined for each treatment group (as indicated by the insert).
The viability of cells was >80% by trypan blue exclusion.
Subcutaneous tumors on the left flank were initiated by injection of 10^6 viable cells in a volume of 0.1 ml. Mice were then randomized into various treatment groups and numbered. The dose per mouse was adjusted on the basis of its weight, determined at the time of treatment. Treatment was started 7 or 8 days after tumor implantation, and consisted of i.v. injections through the tail vein. Buffer or Diluent 12 without taxol were used as control treatments. Animal weight and tumor volume was measured five times weekly until the tumor volume reached 2000 mm^3, at which time animals were sacrificed for humane reasons. Tumor volume was determined by measuring three orthogonal diameters of the tumor, and was calculated as 1/2 of the product of the diameters (Begg, A. C., "Principles and Practices of the Tumor Growth Delay Assay," Rodent Tumor (R. F. Kallman (ed.)), pp. 114-121, New York:Pergammon Press, (1987), which is hereby incorporated by reference). The data was analyzed for statistical significance using the BMDP 1L program (BMDP Statistical Software Inc.; Los Angeles, Calif.).
In the next series the test system is metastatic breast cancer. The following applies: phase II, pretreated patients; cited from earlier work.
Series [6] deals with Colon-26 (C-26), a murine colon tumor model. Put plainly: Antitumor activity in four doses, s.c. Colon-26. It is filed as in vivo, BALB/c mice. Particulars: 4 i.v. doses.
Protocol: Subcutaneous Colon-26 tumors were initiated. When the tumor was measurable (day 7), intravenous treatment was initiated and was repeated on days 8, 12, and 13 (as indicated by the filled circles along the abscissa). Untreated controls received injections of saline or Diluent 12 (diluted 1:3) without taxol (panel A). Treatment with liposome-based taxol formulations consisted of 20, 30, or 40 mg/kg doses of the following: taxol, and, PG, and PC multilamellar vesicles ("MLV") (B), taxol, PG, and PC SUV (C), or taxol, PEG-DPPE, and PC SUV (D). Alternatively, free taxol in Diluent 12 (diluted 1:3 with saline), was administered at doses of 10, 20, or 30 mg/kg (E). […] For humane reasons, animals were sacrificed when tumor volume exceeded 2000mm^3.
(§3) In all experiments, the tumor volume of each animal was measured frequently, and the data was subjected to statistical analysis using an BMDP 1L program. The median time required for the tumor to reach 1500 mm^3 was determined for each treatment group (as indicated by the insert). […]
Subcutaneous tumors on the left flank were initiated by injection of 10^6 viable cells in a volume of 0.1 ml. […] The dose per mouse was adjusted on the basis of its weight, determined at the time of treatment. […] Animal weight and tumor volume was measured five times weekly until the tumor volume reached 2000 mm^3, at which time animals were sacrificed for humane reasons. […]
The test system of series [7] is C-26, a murine colon tumor line. Briefly: Cytostatic activity in vitro, C-26. It is filed as cell-based.
Excerpt: as §2

The next series concerns A90 human ovarian tumor. Briefly: Cytostatic activity in vitro, A90. The series is classed as cell-based. Particulars: 0.1% DMSO vs drug dissolved directly in serum-containing growth medium.
Excerpt: as §2

For a further series, the system named is human tumor lines. Briefly: Cytostatic activity in vitro, human tumor lines. It is filed as cell-based. Particulars: human tumor lines more sensitive than C-26.
Excerpt: as §2

Another series deals with tumor cell lines. Put plainly: Cytostatic activity in vitro, variety of tumor cell lines. The following applies: across tumor cell lines. It is filed as cell-based.
Excerpt: as §2

The subject of series [8] is Colon-26 (C-26), a murine colon tumor model. Put plainly: Antitumor activity in one dose, s.c. Colon-26. The series is classed as in vivo, BALB/c mice.
Protocol: Subcutaneous Colon-26 tumors were initiated and checked daily. When the tumor was measurable (day 8), a single intravenous bolus dose of taxol was given, either in Cremophor EL®/ethanol (Diluent 12) or in liposomes (indicated by the filled circle along the abscissa). Untreated controls received injections of equivalent volumes of saline or Diluent 12 (diluted 1:3) without taxol (panel A). […]
as §3
Subcutaneous tumors on the left flank were initiated by injection of 10^6 viable cells in a volume of 0.1 ml. […] The dose per mouse was adjusted on the basis of its weight, determined at the time of treatment. […] Animal weight and tumor volume was measured five times weekly until the tumor volume reached 2000 mm^3, at which time animals were sacrificed for humane reasons.
Where [9] appears, read: free taxol 20 mg/kg (cumulative 180 mg/kg).

Where two headings read alike, the source gives them in different places.

With `CC(=O)O[C@H]1C(=O)[C@@]2(C)[C@H]([C@H](OC(=O)c3ccccc3)[C@]3(O)C[C@H](OC(=O)[C@H](O)[C@@H](NC(=O)c4ccccc4)c4ccccc4)C(C)=C1C3(C)C)[C@]1(OC(C)=O)CO[C@@H]1C[C@@H]2O` [taxol], the “MTD, single dose” value in series [1] was determined as 30 mg/kg. The MTD is under 35 mg/kg in [2] (owing to the toxicity of Diluent 12, read-out: dose of free taxol that could be given as a single injection) and about 30 mg/kg in series [2] (single dose, read-out: MTD, single dose). The IC50 in [3] was found to be 1.5 ± 0.7 µM; in series [7] (Mus musculus, C-26, 72 hr), 90 ± 10 µM. Besides, the response rate in series [4] is 30%. In addition, the “enhancement of free taxol activity by DMSO” value in the series with 9L rate gliosarcoma and in the series with A90 human ovarian tumor was “approximately 8 fold” throughout. The “effect on tumor progression” value in [5] (9 doses, any dose (10, 20, 30 mg/kg per injection)) is given as “gave no delay in tumor progression at any dose”; in series [5] (setting [9]), “no effect was observed on tumor progression”. Besides, the “tumor growth delay, statistical significance (BMDP 1L)” value is “No dose of free taxol, up to and including lethal concentrations, had a significant effect on tumor progression” in series [5] (9 doses, time to reach 1500 mm^3); “no significant delay in tumor growth at the dose levels tested, compared to buffer or vehicle controls (p>0.05)” in series [6] (vs buffer or vehicle controls); “no significant delay in tumor growth compared to vehicle or buffer controls (p.0.05)” in series [8] (single i.v. dose, time to reach 1500 mm^3). For the same compound, the survival result in series [5] (setting [9]) is given as “most animals survived”. Besides, the “tolerability of individual injections” value in series [5] (free taxol 30 mg/kg) was “tolerated as individual injections”. The lethality result in series [5] (free taxol 30 mg/kg per injection) is “cumulatively lethal to all animals by day 21”. In the series with metastatic breast cancer, the overall response rate is 56%. Also, the “effect on tumor growth” value in series [6] (days 7, 8, 12, 13, free taxol 10, 20, 30, liposomes 20, 30, 40 mg/kg per injection) is reported as “showed no effect on tumor progression”; in series [8] (single i.v. dose on day 8, free taxol 15, 25, 30 mg/kg, liposomes 25, 35, 45 mg/kg, vs controls) it was “showed no effect on tumor growth”. Besides, in [7] (C-26), the “effect of DMSO on cytostatic activity” value is reported as “not affected by DMSO”. In addition, the “sensitivity to taxol relative to C-26” value with human tumor lines is “at least 10 fold”. In the series on tumor cell lines, the “variation of sensitivity to free taxol” value was about 100 fold.

As a reminder, the IC50 is the concentration needed to halve the response being measured. Read a low IC50 as greater potency in that assay.
